# Laboratory results published in publication PMC5339874, “Fluorene-9-bisphenol is anti-oestrogenic and may cause adverse pregnancy outcomes in mice” (Nature Communications, 2017).
# Read-outs that look alike come from different tables or passages of the source.
# Target: T1, human oestrogen receptor β (Homo sapiens, UniProt Q92731)
# T1 construct: expressed in transfected cells; host or cells: JEG-3 human choriocarcinoma cells
# Assay: Dual-luciferase reporter assay, full-length ERβ and ERE in JEG-3 cells
# Format: cell-based
# Experimental: Dual-luciferase reporter assays were carried out primarily according to the method described in a previous study. In short, full-length sequences of human oestrogen receptor α and β were amplified by RT-PCR using mRNA from MCF-7 (Supplementary Table 3), and inserted into a pSVSPORT1 (Invitrogen); the resulting constructs were termed pSVhERα and pSVhERβ. A reporter plasmid containing ERE was constructed by inserting four tandem repeats of an ERE of Xenopus laevis vitellogenin A2 into a pGL4.23 vector (Promega), and was termed pGL4-ERE-luc. […] The Renilla LUC control reporter construct pGL4.74-TK was purchased from Promega (Madison, WI). Human choriocarcinoma JEG-3 cells (ATCC No. HTB-36) were obtained from the American Type Culture Collection (ATCC; Manassas, VA) and were cultured in minimal essential medium (MEM, Invitrogen, Carlsbad, CA) containing 2 mM L-glutamine, 0.1 mM minimal essential medium nonessential amino acid solution (Invitrogen/Thermo Fisher Scientific, Grand Island, NY), and 10% fetal calf serum (FCS) at 37 °C in a humidified atmosphere containing 5% CO2. The cells (3 × 10^4 cells per well) were seeded in 24-well plates 24 h before transfection. The cells were transfected with pGL4-ERE-luc (5 ng per well), pGL 4.74-TK (0.2 ng per well) and either pSVhERα (5 ng per well) or pSVhERβ (5 ng per well) using Lipofectamine reagent (Invitrogen). At 24 h after transfection, the compounds in DMSO were added to the cultures at a volume ratio (v/v) of 0.1%. The cells were continuously cultured in medium supplemented with 1% charcoal-stripped FCS for another 24 h and then harvested, and cell extracts were assayed for firefly luciferase activity. The assays were performed in quadruplicate, and the results were expressed as the fold induction of the control after normalization against Renilla luciferase activity. Sigmoidal dose-effect curves were calculated using the GraphPad Prism 4 software. The IC50 values were calculated on the basis of the sigmoidal dose-effect curves. […]
# T1 sequence (Q92731 whole entry): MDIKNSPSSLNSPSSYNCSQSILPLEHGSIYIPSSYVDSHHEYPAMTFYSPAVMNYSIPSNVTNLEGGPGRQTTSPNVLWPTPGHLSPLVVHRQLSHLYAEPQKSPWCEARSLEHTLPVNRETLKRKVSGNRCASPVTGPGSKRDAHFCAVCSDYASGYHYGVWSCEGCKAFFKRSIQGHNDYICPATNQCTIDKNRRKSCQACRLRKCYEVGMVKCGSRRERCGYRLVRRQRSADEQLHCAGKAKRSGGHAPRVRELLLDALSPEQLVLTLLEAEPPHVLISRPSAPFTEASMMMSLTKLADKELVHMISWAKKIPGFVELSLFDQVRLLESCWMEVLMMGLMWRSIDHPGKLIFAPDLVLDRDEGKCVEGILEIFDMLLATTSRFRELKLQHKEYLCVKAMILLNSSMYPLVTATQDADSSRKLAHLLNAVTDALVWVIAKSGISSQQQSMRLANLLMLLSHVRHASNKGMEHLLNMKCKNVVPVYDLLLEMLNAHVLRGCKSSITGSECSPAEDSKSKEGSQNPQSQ
smiles,measurement,setting,value
"Oc1ccc(C2(c3ccc(O)cc3)c3ccccc3-c3ccccc32)cc1 [BHPF, 9,9-bis(4-hydroxyphenyl)-fluorene]",IC50,"coexisted with 1 × 10^−9 M E2, read-out: IC50, anti-oestrogenic activity",75.3 nM
same,oestrogenic activity,compound alone,no oestrogenic activity
same,IC50,"vs 1 nM E2, read-out: IC50 converted to mass concentration (converted)",75.3 nM
